The term IC50 denotes the concentration that gives 50% inhibition.

The source of these data is patent publication US12441736B2, “KIF18A inhibitors” (AMGEN INC., priority 2018, dated 2025).

In this assay the target is T1, Recombinant human KIF18A (1-467 His-tagged) protein (Homo sapiens, UniProt Q8NI77).
T1 construct: Recombinant human KIF18A (1-467 His-tagged) protein; His; made in house
The assay is described as follows: KIF18A Enzyme Assay: microtubule-stimulated ATPase activity (ADP-Glo). The format is biochemical. The conditions noted are these: 30 nM KIF18A, 30 μg/mL pig microtubules, 75 μM ATP, ADP-Glo luminescence. The method, boiled down:
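His-tagged human KIF18A (1-467, baculovirus), 30 nM, pre-incubated 15 min with compound in Tris pH 7.5 containing 30 μg/mL taxol-stabilised pig microtubules. ATP was then added at Km (75 μM) for 15 min at room temperature. ADP was measured by ADP-Glo luminescence, and IC50 was fitted by 4-parameter logistic over 22 points.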
(ADP-Glo first removes unused ATP, then detects ADP through luciferase.)

T1 sequence (Q8NI77 1-467): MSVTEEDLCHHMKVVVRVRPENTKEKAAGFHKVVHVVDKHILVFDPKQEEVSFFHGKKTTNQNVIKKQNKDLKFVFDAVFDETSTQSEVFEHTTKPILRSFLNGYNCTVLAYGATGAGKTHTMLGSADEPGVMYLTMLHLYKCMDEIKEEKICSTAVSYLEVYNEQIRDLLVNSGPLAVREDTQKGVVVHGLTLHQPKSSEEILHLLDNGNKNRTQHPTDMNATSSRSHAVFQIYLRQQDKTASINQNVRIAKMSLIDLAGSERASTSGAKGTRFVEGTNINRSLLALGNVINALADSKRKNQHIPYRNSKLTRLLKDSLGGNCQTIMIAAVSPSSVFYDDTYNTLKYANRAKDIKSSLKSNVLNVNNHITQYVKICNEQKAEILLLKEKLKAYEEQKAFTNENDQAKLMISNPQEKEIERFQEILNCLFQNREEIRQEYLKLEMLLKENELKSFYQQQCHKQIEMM
T1 sequence (P02550 whole entry partner): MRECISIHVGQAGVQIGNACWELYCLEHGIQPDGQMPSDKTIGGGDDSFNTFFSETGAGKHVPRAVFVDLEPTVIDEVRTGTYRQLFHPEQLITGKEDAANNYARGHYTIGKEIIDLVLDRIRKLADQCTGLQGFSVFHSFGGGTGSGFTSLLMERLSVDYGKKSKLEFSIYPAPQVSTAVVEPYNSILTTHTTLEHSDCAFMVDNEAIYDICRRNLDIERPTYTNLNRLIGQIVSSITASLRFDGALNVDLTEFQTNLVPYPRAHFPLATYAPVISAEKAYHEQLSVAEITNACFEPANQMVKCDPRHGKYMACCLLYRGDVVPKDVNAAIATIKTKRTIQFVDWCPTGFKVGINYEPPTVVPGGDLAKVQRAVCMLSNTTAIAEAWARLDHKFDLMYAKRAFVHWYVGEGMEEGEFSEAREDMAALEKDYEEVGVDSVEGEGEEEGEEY
T1 sequence (P02554 whole entry partner): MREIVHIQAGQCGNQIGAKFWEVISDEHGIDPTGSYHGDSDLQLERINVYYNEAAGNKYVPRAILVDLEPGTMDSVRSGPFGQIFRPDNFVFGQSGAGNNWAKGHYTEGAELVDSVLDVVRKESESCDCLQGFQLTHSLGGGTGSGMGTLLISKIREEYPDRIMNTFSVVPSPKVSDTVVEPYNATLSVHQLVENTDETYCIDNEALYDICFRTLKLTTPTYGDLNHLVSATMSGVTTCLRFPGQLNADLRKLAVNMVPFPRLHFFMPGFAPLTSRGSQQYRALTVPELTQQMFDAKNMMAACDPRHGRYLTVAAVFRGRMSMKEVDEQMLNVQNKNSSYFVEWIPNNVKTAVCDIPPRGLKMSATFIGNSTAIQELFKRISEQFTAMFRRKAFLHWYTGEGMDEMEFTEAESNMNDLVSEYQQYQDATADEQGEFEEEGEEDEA

With `C[C@@H]1CN(c2cccc(NC(=O)c3ccc(C(C)(O)CO)nc3N3CCC4(CC3)CC4)n2)CCO1` (stereo partly drawn) [Example 166, 6-(1,2-dihydroxypropan-2-yl)-N-(6-((R)-2-methylmorpholino)pyridin-2-yl)-2-(6-azaspiro[2.5]octan-6-yl)nicotinamide], the IC50 amounted to 62.5 nM.
The value for `C[C@H]1CN(c2cccc(NC(=O)c3ccc(NC(C)(C)CO)nc3N3CCC4(CC3)CC4)n2)CCO1` [Example 132, 2-(6-azaspiro[2.5]oct-6-yl)-6-((2-hydroxy-1,1-dimethylethyl)amino)-N-(6-((2S)-2-methyl-4-morpholinyl)-2-pyridinyl)-3-pyridinecarboxamide] was 82.1 nM; that for `CC(C)(CO)Nc1ccc(C(=O)Nc2cccc(N3CCC(F)(F)C3)n2)c(N2CCC3(CC2)CC3)n1` [Example 129, 2-(6-azaspiro[2.5]oct-6-yl)-N-(6-(3,3-difluoro-l-pyrrolidinyl)-2-pyridinyl)-6-((2-hydroxy-1,1-dimethylethyl)amino)-3-pyridinecarboxamide] was 83.4 nM.
The value for `CC(C)(C)NS(=O)(=O)c1cccc(NC(=O)c2ncc(NC3(CO)CC3)nc2N2CCC3(CC2)CC3)n1` [Example 109, 3-(6-azaspiro[2.5]oct-6-yl)-5-((1-(hydroxymethyl)cyclopropyl)amino)-N-(6-((2-methyl-2-propanyl)sulfamoyl)-2-pyridinyl)-2-pyrazinecarboxamide] was 79.3 nM; that for `CC(C)(C)NS(=O)(=O)c1cccc(NC(=O)c2ccc(C3(C(F)(F)F)COC(C)(C)O3)nc2N2CCC3(CC2)CC3)n1` (racemic) [Example 171, N-(6-(N-(tert-butyl)sulfamoyl)pyridin-2-yl)-6-(2,2-dimethyl-4-(trifluoromethyl)-1,3-dioxolan-4-yl)-2-(6-azaspiro[2.5]octan-6-yl)nicotinamide] was 286 nM.
As for `C[C@@H]1CN(c2cccc(NC(=O)c3ccc(S(=O)(=O)NC(C)(C)C)nc3N3CCC4(CC3)CC4)n2)CCO1` [Example 225, 2-(6-azaspiro[2.5]octan-6-yl)-N-(6-((2R)-2-methyl-4-morpholinyl)-2-pyridinyl)-6-((2-methyl-2-propanyl)sulfamoyl)-3-pyridinecarboxamide], the IC50 is 102 nM.
The value for `C[C@@H]1CN(c2nc(NC(=O)c3ccc(NC(C)(C)CO)nc3N3CCC4(CC3)CC4)ccc2F)CCO1` [Example 247, 2-(6-azaspiro[2.5]octan-6-yl)-N-(5-fluoro-6-((2R)-2-methyl-4-morpholinyl)-2-pyridinyl)-6-((1-hydroxy-2-methyl-2-propanyl)amino)-3-pyridinecarboxamide] was 89.1 nM.
Take `CC(C)(CO)Nc1cnc(C(=O)Nc2cc(C3CC3)cc(N3CCOCC3)n2)c(N2CCC3(CC2)CC3)n1` [Example 118, 3-(6-azaspiro[2.5]octan-6-yl)-N-(4-cyclopropyl-6-(4-morpholinyl)-2-pyridinyl)-5-((1-hydroxy-2-methyl-2-propanyl)amino)-2-pyrazinecarboxamide]: the IC50 came to 540 nM.
As to `C[C@@H]1CN(c2cccc(NC(=O)c3cnc(NS(=O)(=O)CCO)cc3N3CCC4(CC3)CC4)n2)CCO1` [Example 237], the 50% inhibitory concentration (IC50) worked out at 66.7 nM.
With `Cc1cc(NC(=O)c2ccc(N3CC(O)CC3(C)C)nc2N2CCC3(CC2)CC3)nc(N2CCOCC2)c1` (stereo not drawn) [Example 212, 6-(4-hydroxy-2,2-dimethylpyrrolidin-l-yl)-N-(4-methyl-6-morpholinopyridin-2-yl)-2-(6-azaspiro[2.5]octan-6-yl)nicotinamide] the figure was 540 nM.
On to `CC(C)(CO)Nc1cnc(C(=O)Nc2cccc(S(=O)(=O)N3CCCCC3)n2)c(N2CCC3(CC2)CC3)n1` [Example 100, 5-((1-hydroxy-2-methylpropan-2-yl)amino)-N-(6-(piperidin-1-ylsulfonyl)pyridin-2-yl)-3-(6-azaspiro[2.5]octan-6-yl)pyrazine-2-carboxamide], for which the IC50 was 70.5 nM.
For the compound `C[C@@H]1CN(c2cccc(NC(=O)c3ccc(C(O)(CO)C(F)(F)F)nc3N3CCC4(CC3)CC4)n2)CCO1` (stereo partly drawn) [Example 182, N-(6-((R)-2-methylmorpholino)pyridin-2-yl)-2-(6-azaspiro[2.5]octan-6-yl)-6-(1,1,1-trifluoro-2,3-dihydroxypropan-2-yl)nicotinamide], the IC50 came out at 79.5 nM.
With `CC(C)(CO)Nc1cnc(C(=O)Nc2cccc(N3C[C@@H]4C[C@H]3CO4)n2)c(N2CCC3(CC2)CC3)n1` (racemic) [Example 112, N-(6-((1S,4S)-2-oxa-5-azabicyclo[2.2.1]heptan-5-yl)pyridin-2-yl)-5-((1-hydroxy-2-methylpropan-2-yl)amino)-3-(6-azaspiro[2.5]octan-6-yl)pyrazine-2-carboxamide] the figure was 182 nM.
Take `CC(C)(C)NS(=O)(=O)c1cccc(NC(=O)c2ccc(F)nc2N2CCC3(CC2)CC3)n1` [Example 173, 2-(6-azaspiro[2.5]octan-6-yl)-6-fluoro-N-(6-((2-methyl-2-propanyl)sulfamoyl)-2-pyridinyl)-3-pyridinecarboxamide]: the IC50 was found to be 643 nM.
On to `CS(=O)(=O)Cc1ccc(C(=O)Nc2cccc(N3CCC[C@@H](O)C3)n2)c(N2CCC3(CC2)CC3)n1` [Example 241, 2-(6-azaspiro[2.5]octan-6-yl)-N-(6-((3R)-3-hydroxy-1-piperidinyl)-2-pyridinyl)-6-((methylsulfonyl)methyl)-3-pyridinecarboxamide], for which the IC50 was 101 nM.
As for `C[C@@H]1CN(c2cccc(NC(=O)c3ccc([C@](O)(CO)C(F)(F)F)nc3N3CCC4(CC3)CC4)n2)CCO1` (single isomer, unassigned) [Example 207], the IC50 was found to be 105 nM.
`Cc1cc(NC(=O)c2ncc(NC(C)(C)CO)nc2N2CCC3(CC2)CC3)nc(N2CCOCC2)c1` [Example 114, 3-(6-azaspiro[2.5]octan-6-yl)-5-((1-hydroxy-2-methyl-2-propanyl)amino)-N-(4-methyl-6-(4-morpholinyl)-2-pyridinyl)-2-pyrazinecarboxamide]: the IC50 was found to be 178 nM.
As to `CC(CO)(CO)Nc1cnc(C(=O)Nc2cccc(N3CCOCC3)n2)c(N2CCC3(CC2)CC3)n1` [Example 115, 3-(6-azaspiro[2.5]octan-6-yl)-5-((1,3-dihydroxy-2-methyl-2-propanyl)amino)-N-(6-(4-morpholinyl)-2-pyridinyl)-2-pyrazinecarboxamide], the IC50 was found to be 106 nM.
In the case of `C[C@@H]1CN(c2cccc(NC(=O)c3ccc(NC(C)(C)CCO)nc3N3CCC4(CC3)CC4)n2)CCO1` [Example 214, 2-(6-azaspiro[2.5]octan-6-yl)-6-((4-hydroxy-2-methyl-2-butanyl)amino)-N-(6-((2R)-2-methyl-4-morpholinyl)-2-pyridinyl)-3-pyridinecarboxamide], the IC50 came out at 170 nM.
The value for `CC(C)(C)NS(=O)(=O)c1cccc(NC(=O)c2ncc(C(C)(O)C(F)(F)F)nc2N2CCC3(CC2)CC3)n1` (stereo not shown) [Example 110, N-(6-(N-(tert-butyl)sulfamoyl)pyridin-2-yl)-3-(6-azaspiro[2.5]octan-6-yl)-5-(1,1,1-trifluoro-2-hydroxypropan-2-yl)pyrazine-2-carboxamide] was 260 nM; that for `C[C@@H]1CN(c2cccc(NC(=O)c3ccc(C(F)CO)nc3N3CCC4(CC3)CC4)n2)CCO1` (stereo partly drawn) [Example 197, 6-(1-Fluoro-2-hydroxyethyl)-N-(6-((R)-2-methylmorpholino)pyridin-2-yl)-2-(6-azaspiro[2.5]octan-6-yl)nicotinamide] was 180 nM.
For `CC(C)(CO)Nc1ccc(C(=O)Nc2cccc(N3CCN(C4CC4)CC3)n2)c(N2CCC3(CC2)CC3)n1` [Example 190, 2-(6-azaspiro[2.5]octan-6-yl)-N-(6-(4-cyclopropyl-1-piperazinyl)-2-pyridinyl)-6-((1-hydroxy-2-methyl-2-propanyl)amino)-3-pyridinecarboxamide], the IC50 was 693 nM.
The value for `CC(C)(C)NS(=O)(=O)c1cccc(NC(=O)c2ccc([C@](O)(CO)C(F)(F)F)nc2N2CCC3(CC2)CC3)n1` (single isomer, unassigned) [Example 176] was 101 nM; that for `CC(C)(CO)Nc1ccc(C(=O)Nc2cccc(C3CCOCC3)n2)c(N2CCC3(CC2)CC3)n1` [Example 146, 2-(6-azaspiro[2.5]oct-6-yl)-6-((1-hydroxy-2-methyl-2-propanyl)amino)-N-(6-(tetrahydro-2H-pyran-4-yl)-2-pyridinyl)-3-pyridinecarboxamide] was 247 nM.
Take `O=C(Nc1ccc(NS(=O)(=O)CCO)cc1N1CCC2(CC1)CC2)c1cccc(N2CCC(F)(F)CC2)n1` [Example 248, 6-(4,4-difluoropiperidin-1-yl)-N-(4-((2-hydroxyethyl)sulfonamido)-2-(6-azaspiro[2.5]octan-6-yl)phenyl)picolinamide]: the half-inhibitory concentration (IC50) turned out to be 16 nM.
As to `CC(C)(CO)Nc1ccc(C(=O)Nc2cccc(N3C[C@H]4C[C@H]4C3)n2)c(N2CCC3(CC2)CC3)n1` [Example 136, N-(6-((1R,5S)-3-azabicyclo[3.1.0]hex-3-yl)-2-pyridinyl)-2-(6-azaspiro[2.5]oct-6-yl)-6-((2-hydroxy-1,1-dimethylethyl)amino)-3-pyridinecarboxamide], the IC50 stood at 71.9 nM.
With `C[C@@H]1CN(c2cccc(NC(=O)c3ccc([C@](C)(O)CO)nc3N3CCC4(CC3)CC4)n2)CCO1` [Example 167, 2-(6-azaspiro[2.5]octan-6-yl)-6-((2S)-1,2-dihydroxy-2-propanyl)-N-(6-((2R)-2-methyl-4-morpholinyl)-2-pyridinyl)-3-pyridinecarboxamide], the IC50 turned out to be 82.2 nM.
The value for `O=C(Nc1cccc(N2CCOCC2)n1)c1ccc(C(O)(CO)C(F)(F)F)nc1N1CCC2(CC1)CC2` (stereo not shown) [Example 181, N-(6-morpholinopyridin-2-yl)-2-(6-azaspiro[2.5]octan-6-yl)-6-(1,1,1-trifluoro-2,3-dihydroxypropan-2-yl)nicotinamide] was 69.9 nM.
